The target of one test is T1, MCL1 protein (Homo sapiens, UniProt Q07820).
T1 construct: this assay uses full length endogenous MCL1 protein at mitochondria outer membrane; endogenous in cells; host or cells: RKO colon cancer cell line
Nature of the test: PIxEL: protein-protein interaction in permeabilized cells by ELISA (Assay 5). To be noted: permeabilized RKO cells, biotin-BIM BH3 peptide 0.2 μM, serum free. It is filed as cell-based. As for the experimental part:
PIxEL: Protein-Protein Interaction in Permeabilized Cells by ELISA
Most MCL1 protein molecules are localized at the mitochondria outer membrane and sequester pro-apoptotic proteins through binding of their BCL2 homology domain 3 (BH3 domain). MEB buffer (150 mM mannitol, 10 mM HEPES pH 7.5, 50 mM KCl, 20 μM EDTA, 20 μM EGTA, 5 mM potassium succinate, 0.1% protease-free BSA (SIGMA) with low dose digitonin (0.002%) permeabilizes plasma membrane while leaves live mitochondria, where MCL1 maintains its native localization and conformation. Unlike biophysical assays (e.g. TR-FRET) that use truncated recombinant MCL1 protein, this assay uses full length endogenous MCL1 protein at mitochondria outer membrane. It measures the interaction between MCL1 protein and biotinylated BIM BH3 peptide. Compounds can compete with BIM BH3 peptide to bind to MCL1 protein.
On day 1, RKO colon cancer cell line cells were plated at 0.8 million cells/ml, 100 μl/well in 96-well flat bottom TC plates (Corning). […] Each plate was tapped to make sure liquid covering entire bottom of wells and incubate at 37° C. overnight.
On the second day, MCL1 antibody was washed from ELISA plate. 250 μl Odyssey® Blocking Buffer (PBS) (Li-Cor) was added to each well, incubated at room temperature for at least 1 hour, then washed once with 250 μl 1×PBST. Plates with RKO cells were gently washed once with 100 μl/well PBS, once with 100 μl/well MEB buffer without digitonin, then 100 μl of MEB buffer with 0.002% digitonin was gently added to each well. Compounds were added with HP Tecan compound dispenser in 3-fold dilution series, highest dose 30 μM, 10-dose per compound in quadruplicates. Biotin-BIM peptide (synthesized by 21st Century) was added with HP Tecan compound dispenser at 0.2 μM immediately after the addition of compounds. Plates were rocked for 1 h at room temperature. Then MEB buffer was aspirated and 50 μl of CHAPS buffer (50 mM Tris-Cl, pH 7.4, 150 mM NaCl, 1% CHAPS, 1 mM EDTA, 1 mM EGTA, complete protease inhibitors (Roche), PhosSTOP (Roche)) was added to each well. Plates were rocked for 1 hour at 4° C., then 45 μl cell lysate from each well were transferred to ELISA plates coated with MCL1 antibody. Plates were incubated overnight in the cold room with rocking.
On the third day, ELISA plates were washed once with 250 μl 1×PBST. Streptavidin-poly-HRP (Thermo Fisher Scientific) was diluted to 20 ng/ml in Odyssey blocking buffer plus 0.05% Triton-100, and 100 μl was added to each well of the ELISA plate. Plates were incubated at RT for 1 hour with rocking, then washed with 100 μL 1×PBST for 3 times. Each SuperSignal ELISA Femto Maximum Sensitivity substrate was added to a 50-ml tube and mixed, then 100 μl of mixed substrate was added to each well. Plates were shaken for 1 minute then luminescence was measured by Envision plate reader […]. Signal of each well were normalized by no-compound control and no-cell control. IC50 was calculated using Graphic Pad PRISM software.
On the technique in general: An ELISA detects its analyte on a solid surface through an enzyme-linked reagent.

In a further test the target is BCL-XL (Homo sapiens, UniProt Q07817). Nature of the test: Protein-protein interaction assay BCL-XL/Bad BH3 peptide, TR-FRET (BCL-XL assay, Assay 2). It is filed as binding. To be noted: His-BCL-XL / Bad BH3 peptide, median. In general terms: Time-resolved FRET reads energy transfer from a long-lived donor to a nearby acceptor.
A further test deals with A2780. Briefly: Anti-proliferative effect in A2780 cells, CellTiter-Glo (Assay 7). It is filed as cell-based. To be noted: several values per example. In short, it runs like this: (§1)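 Cells were plated and incubated overnight at 37 °C alongside a day 0 reference plate, then exposed to compound for 72 h. Viability was read by CellTiter-Glo luminescence, and IC50s were calculated using day 0 values and DMSO controls as references.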
In general terms: ATP-based viability assays read luminescence as a measure of living cells.

For the next test, the system named is MV-4-11. Nature of the test: Anti-proliferative effect in MV-4-11 cells, CellTiter-Glo (Assay 7). The class given is cell-based. In short, it runs like this:
as §1

Setting [1] is: median, read-out: PIxEL [M] (median).
Where [2] appears, read: A2780, 72 hours incubation, CellTiter-Glo, read-out: Antiproli A2780.
Setting [3] is: MV-4-11, 72 hours incubation, CellTiter-Glo; several values per example; read-out: Antiproli MV-4-11.
Where [4] appears, read: read-out: Antiproli MV-4-11; MV-4-11, 72 hours incubation, CellTiter-Glo; several values per example.

Values joined by “and” are separate entries in the source; they are usually repeats but may differ in a detail not shown here. Equal values may be shown once. Where a name gives a salt, the structure may show the parent alone. Read-outs that look alike come from different tables or passages of the source.

Results on 11 compounds are retold here after patent US20210253598A1, “ARYL ANNULATED MACROCYCLIC INDOLE DERIVATIVES” (priority 2017, published 2021).

T1 sequence (Q07820 whole entry): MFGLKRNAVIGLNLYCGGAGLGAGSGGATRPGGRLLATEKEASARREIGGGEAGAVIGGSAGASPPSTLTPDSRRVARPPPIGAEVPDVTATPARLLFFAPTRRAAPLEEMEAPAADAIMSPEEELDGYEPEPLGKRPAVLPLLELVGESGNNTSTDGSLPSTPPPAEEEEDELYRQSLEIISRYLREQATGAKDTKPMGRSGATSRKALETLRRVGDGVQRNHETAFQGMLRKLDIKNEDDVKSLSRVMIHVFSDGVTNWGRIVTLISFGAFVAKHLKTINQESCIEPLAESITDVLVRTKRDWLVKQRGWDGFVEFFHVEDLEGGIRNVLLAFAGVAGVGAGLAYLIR
Sequence of BCL-XL (Q07817 1-212): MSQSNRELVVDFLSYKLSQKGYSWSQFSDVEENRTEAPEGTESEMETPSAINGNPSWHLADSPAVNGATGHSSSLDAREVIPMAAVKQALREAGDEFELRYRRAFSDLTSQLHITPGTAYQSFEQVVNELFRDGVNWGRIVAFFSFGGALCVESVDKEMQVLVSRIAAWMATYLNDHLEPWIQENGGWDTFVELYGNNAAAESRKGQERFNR
Description for BCL-XL: Protein-Protein Interaction Assay: BCL-XL/Bad BH3 Peptide (BCL-XL Assay)
The dose-dependent inhibition by the compounds described in this invention of the interaction between BCL-XL and the BH3 domain of Bad (both human) was determined using a steady state binding competition assay with time-resolved fluorescence energy transfer (TR-FRET) readout. For that purpose BCL-XL (amino acids 1-212, C-terminal fused to a hexahistidine (6×His) tag (SEQ ID 3) and a synthetic Bad BH3-derived peptide of sequence Biotin-PEG2-PEG2-[sequence]-Nle-[sequence]-amide (SEQ ID 4) served as protein receptor and tracer ligand respectively. The recombinant BCL-XL protein (expressed in E. coli) was purchased from BPS Bioscience (San Diego, Calif., USA). The Bad BH3-derived peptide can be obtained from e.g. Biosyntan (Berlin, Germany).
For that, 100-fold concentrated DMSO solutions were prepared by serial dilutions (1:3.4) of a 2 mM stock solution in a clear, 384-well microtiter plate (Greiner Bio-One, Frickenhausen, Germany). From there, 50 nl were transferred in a dark test plate (Greiner Bio-One, Frickenhausen, Germany). The assay was initiated by addition of 2 μl of a 2,5-fold concentrated His-BCL-XL solution (usually for a 1 nM end concentration in 5 μl reaction volume) in aqueous assay buffer [50 mM Tris/HCl pH 7, 100 mM sodium chloride (NaCl), 50 mM potassium fluoride (KF), 0.005% Tween-20, 2 mM DTT, 0.1% bovine gamma globulin (BGG)] to the compounds in the assay plate. This was followed by a 10-minute incubation step at 22° C. for pre-equilibration of the putative complex between His-BCL-XL and the compounds.
The mixture was incubated in the dark for one hour at 22° C. and then overnight at 4° C. The formation of BCL-XL/Bad complexes was determined by measuring the resonance energy transfer of the anti-His- Eu-cryptate antibody to the streptavidin-XL665 present in the reaction. For that purpose, the fluorescence emission at 620 nm and 665 nm after excitation at 330-350 nm was measured in a TR-FRET measuring instrument, for instance a Rubystar or a Pherastar (both from BMG Lab Technologies, Offenburg, Germany) or a Viewlux (Perkin-Elmer). The ratio of the emission at 665 nm and at 622 nm was used as indicator of the amount of BCL-XL/Bad complexes present.
The resulting data (ratio) were normalized, taking 0% inhibition as the mean value of control measurements (usually 32 data points) where all reagents were included. In this case 50 nl DMSO were used instead of compounds. […] IC50 values were determined by regression analysis based on a 4 parameter equation (minimum, maximum, IC50, Hill; Y=Max+(Min−Max)/(1+(X/IC50)^Hill) using the Screener Software (Genedata).

For `Cc1c2c(nn1C)COCc1ccccc1Cn1c(C(=O)O)c(CCCOc3cccc4cc(F)ccc34)c3ccc(F)c-2c31` (single isomer, unassigned; enantiomer 1) [Example 65, (−)-3-fluoro-17-{3-[(6-fluoronaphthalen-1-yl)oxy]propyl}-4,5-dimethyl-5,7,9,14-tetrahydroindolo[7,1-fg]pyrazolo[3,4-d][2,8]benzoxazacycloundecine-16-carboxylic acid-N-ethylethanamine Salt (Enantiomer 1)], the IC50 against MCL1 protein (PIxEL [M] (median)) is 1.04e-06 M; against BCL-XL it was more than 20000 nM; in the test with A2780 (Homo sapiens, A2780, 72 h, A2780, 72 hours incubation, CellTiter-Glo, read-out: Antiproli A2780), 1.01e-05 M.
Take `CCc1nn(CCN2CCOCC2)c2c1-c1c(Cl)ccc3c(CCCOc4cccc5cc(F)ccc45)c(C(=O)O)n(c13)Cc1ccccc1COC2` (single isomer, unassigned; enantiomer 1) [Example 52, (−)-3-Chloro-4-ethyl-17-{3-[(6-fluoronaphthalen-1-yl)oxy]propyl}-6-[2-(morpholin-4-yl)ethyl]-6,7,9,14-tetrahydroindolo[7,1-fg]pyrazolo[3,4-d][2,8]benzoxazacycloundecine-16-carboxylic Acid (Enantiomer 1)]: the figures for the IC50 on MCL1 protein (setting [1]), against BCL-XL and with A2780 (setting [2]) were 3.68e-07 M, more than 20000 nM and 2.41e-06 M, respectively.
As for `Cc1c2c(nn1C)COCc1ccccc1Cn1c(C(=O)O)c(CCCOc3cccc4cc(F)ccc34)c3ccc(Cl)c-2c31` (racemic) [Example 48, (rac)-3-Chloro-17-{3-[(6-fluoronaphthalen-1-yl)oxy]propyl}-4,5-dimethyl-5,7,9,14-tetrahydroindolo[7,1-fg]pyrazolo[3,4-d][2,8]benzoxazacycloundecine-16-carboxylic Acid], the IC50 in the test on MV-4-11 (Homo sapiens, MV4-11, 72 h, MV-4-11, 72 hours incubation, CellTiter-Glo; several values per example; read-out: Antiproli MV-4-11) is 4130 nM; in the test with MV-4-11 (setting [3]) it was 4810 nM.
In the case of `CCNCC.Cc1c2c(nn1C)COCc1ncccc1Cn1c(C(=O)O)c(CCCOc3cccc4ccccc34)c3ccc(Cl)c-2c31` (single isomer, unassigned; enantiomer 1) [Example 43, 3-Chloro-4,5-dimethyl-17-[3-(naphthalen-1-yloxy)propyl]-5,7,9,14-tetrahydropyrazolo-[4′,3′:9,10]pyrido[2′,3′:3,4][1,6]oxazacycloundecino[8,7,6-hi]indole-16-carboxylic acid-N-ethylethanamine Salt (Enantiomer 1)], the IC50 on MCL1 protein (setting [1]) is 2.97e-06 M; on BCL-XL, more than 20000 nM; in the test on MV-4-11 (setting [3]), 3230 nM and 2830 nM and 4420 nM; with A2780 (setting [2]), 2.34e-05 M.
Take `CCc1nn(C)c2c1-c1c(Cl)ccc3c(CCCOc4cccc5cc(F)ccc45)c(C(=O)O)n(c13)Cc1ccccc1COC2` (single isomer, unassigned; enantiomer 1) [Example 58, (+)-3-Chloro-4-ethyl-17-{3-[(6-fluoronaphthalen-1-yl)oxy]propyl}-6-methyl-6,7,9,14-tetrahydro-indolo[7,1-fg]pyrazolo[3,4-d][2,8]benzoxazacycloundecine-16-carboxylic acid-N-ethylethanamine Salt (Enantiomer 1)]: the IC50 is 8.34e-07 M on MCL1 protein (setting [1]), 17300 nM against BCL-XL and 1360 nM with MV-4-11 (setting [3]).
Take `CCc1c2c(nn1C)COCc1ccccc1Cn1c(C(=O)O)c(CCCOc3cccc4cc(F)ccc34)c3ccc(Cl)c-2c31` (single isomer, unassigned; enantiomer 2) [Example 56, (+)-3-Chloro-4-ethyl-17-{3-[(6-fluoronaphthalen-1-yl)oxy]propyl}-5-methyl-5,7,9,14-tetrahydro-indolo[7,1-fg]pyrazolo[3,4-d][2,8]benzoxazacycloundecine-16-carboxylic Acid N-ethylethanamine Salt (Enantiomer 2)]: the values for the IC50 on MCL1 protein (PIxEL [M] (median)) and in the test on MV-4-11 (setting [4]) were 2.35e-06 M and 2770 nM, respectively.
Take `Cc1c2c(nn1C)COCc1ccccc1Cn1c(C(=O)O)c(CCCOc3cccc4cc(F)ccc34)c3ccc(Cl)c-2c31` (single isomer, unassigned; enantiomer 2) [Example 50, (+)-3-Chloro-17-{3-[(6-fluoronaphthalen-1-yl)oxy]propyl}-4,5-dimethyl-5,7,9,14-tetrahydroindolo[7,1-fg]pyrazolo[3,4-d][2,8]benzoxazacycloundecine-16-carboxylic acid-N-ethylethanamine Salt (Enantiomer 2)]: the IC50 on MCL1 protein (PIxEL [M] (median)) is 1.69e-06 M; in the test on MV-4-11 (setting [3]), 2210 nM and 3070 nM and 2530 nM; in the test with A2780 (setting [2]), 1.17e-05 M and 8.65e-06 M.
Turning to `Cc1c2c(nn1C)COCc1ccccc1Cn1c(C(=O)O)c(CCCOc3cccc4ccccc34)c3ccc(F)c-2c31` (single isomer, unassigned; enantiomer 1) [Example 68, (−)-3-Fluoro-4,5-dimethyl-17-{3-[(naphthalen-1-yl)oxy]propyl}-5,7,9,14-tetrahydroindolo[7,1-fg]pyrazolo[3,4-d][2,8]benzoxazacycloundecine-16-carboxylic acid-N-ethylethanamine Salt (Enantiomer 1)], the IC50 was 2.16e-06 M against MCL1 protein (PIxEL [M] (median)); more than 20000 nM at BCL-XL; 2.9e-05 M in the test on A2780 (Homo sapiens, A2780, 72 h, read-out: Antiproli A2780 [M], A2780, 72 hours incubation, CellTiter-Glo).
For the compound `Cc1c2c(nn1C)COCc1ccccc1Cn1c(C(=O)O)c(CCCOc3cccc4ccccc34)c3ccc(Cl)c-2c31` (single isomer, unassigned; enantiomer 1) [Example 37, (−)-3-Chloro-4,5-dimethyl-17-[3-(naphthalen-1-yloxy)propyl]-5,7,9,14-tetrahydroindolo[7,1-fg]pyrazolo[3,4-d][2,8]benzoxazacycloundecine-16-carboxylic Acid (Enantiomer 1)], the IC50 against MCL1 protein (PIxEL [M] (median)) was 1.61e-06 M; on BCL-XL, more than 20000 nM.
For `Cc1c2c(nn1C)COCc1ncccc1Cn1c(C(=O)O)c(CCCOc3cccc4ccccc34)c3cccc-2c31` (single isomer, unassigned; enantiomer 1) [Example 8, 4,5-Dimethyl-17-[3-(naphthalen-1-yloxy)propyl]-5,7,9,14-tetrahydropyrazolo[4′,3′:9,10]-pyrido[2′,3′:3,4][1,6]oxazacycloundecino[8,7,6-hi]indole-16-carboxylic acid-N-ethylethanamine Salt (Enantiomer 1)], in that order: 1.82e-05 M and more than 20000 nM.
For `CCc1c2c(nn1C)COCc1ccccc1Cn1c(C(=O)O)c(CCCOc3cccc4cc(F)ccc34)c3ccc(Cl)c-2c31` (single isomer, unassigned; enantiomer 1) [Example 55, (−)-3-Chloro-4-ethyl-17-{3-[(6-fluoronaphthalen-1-yl)oxy]propyl}-5-methyl-5,7,9,14-tetrahydro-indolo[7,1-fg]pyrazolo[3,4-d][2,8]benzoxazacycloundecine-16-carboxylic Acid N-ethylethanamine Salt (Enantiomer 1)], the figures for the IC50 against MCL1 protein (PIxEL [M] (median)), against BCL-XL and in the test on MV-4-11 (setting [4]) were 3.11e-07 M, more than 20000 nM and 964 nM, respectively.
